Target: T1, human AT1 receptor (Homo sapiens, UniProt P30556)
T1 construct: expressed in transfected cells; host or cells: CHO-K1
T1 sequence (P30556 1-359): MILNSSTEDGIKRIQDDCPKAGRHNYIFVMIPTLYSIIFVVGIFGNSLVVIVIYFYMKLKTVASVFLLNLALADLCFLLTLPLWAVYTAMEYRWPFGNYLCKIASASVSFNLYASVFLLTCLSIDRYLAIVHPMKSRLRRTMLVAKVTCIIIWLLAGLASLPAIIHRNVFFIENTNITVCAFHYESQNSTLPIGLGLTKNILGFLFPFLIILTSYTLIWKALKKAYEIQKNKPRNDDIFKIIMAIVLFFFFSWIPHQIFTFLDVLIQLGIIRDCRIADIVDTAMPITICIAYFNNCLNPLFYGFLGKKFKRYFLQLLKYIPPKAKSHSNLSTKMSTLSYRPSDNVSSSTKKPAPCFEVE
Experiment: AT1 radioligand binding assay (Assay 1)
Details: displacement of [Eu]AngII 2 nM, membranes of CHO-K1 cells expressing human AT1 receptor
Method: These in vitro assays were used to assess the ability of test compounds to bind to the AT1 and the AT2 receptors.
Chinese hamster ovary (CHO-K1) derived cell lines stably expressing the cloned human AT1 or AT2 receptors, respectively, were grown in HAM's-F12 medium supplemented with 10% fetal bovine serum, 10 μg/ml penicillin/streptomycin, and 500 μg/ml geneticin in a 5% CO2 humidified incubator at 37° C. AT2 receptor expressing cells were grown in the additional presence of 100 nM PD123,319 (AT2 antagonist). When cultures reached 80-95% confluence, the cells were washed thoroughly in PBS and lifted with 5 mM EDTA. […]
Binding assays were performed in 96-well Acrowell filter plates (Pall Inc., cat. #5020) in a total assay volume of 100 μL, with 0.2 μg membrane protein for membranes containing the human AT1 receptor, or 2 μg membrane protein for membranes containing the human AT2 receptor in assay buffer (50 mM Tris/HCl pH 7.5 at 20° C., 5 mM MgCl2, 25 μM EDTA, 0.025% BSA). […] Non-specific binding was determined in the presence of 10 μM unlabeled angiotensin-II. […] Filter-bound [Eu]AngII was quantitated immediately on a Fusion plate reader (PerkinElmer) using Time Resolved Fluorescence (TRF). Binding data were analyzed by nonlinear regression analysis with the GraphPad Prism Software package (GraphPad Software, Inc., San Diego, Calif.) using the 3-parameter model for one-site competition. […]

For “4′-2-Butyl-4-chloro-5-[((S)-2-mercaptomethyl-4-methylpentanoylamino)methyl]imidazol-1-ylmethylbiphenyl-2-carboxylic Acid [Example 1]”, the “pKi at the AT1 receptor” value was “greater than 7.0”.

Source: patent US8349875B2, “Dual-acting antihypertensive agents” (Theravance, Inc., priority 2007, dated 2013)
